Data as given in patent US8802597B2, “Herbicidal pyrimidines” (E I du Pont de Nemours and Company, priority 2003, dated 2014).
Like-named read-outs stand apart in the source and are kept apart here.

Legend:
Type in all cases: in vivo
wild oat (Avena fatua) = assay: Test B postemergence; conditions: Avena fatua, post-emergence, scale 0 to 100 (0 no effect, 100 complete control), read-out: Oat, Wild plant response rating
Summary of the method: (§1)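 Test chemicals in a non-phytotoxic solvent mixture with surfactant were applied preemergence to planted seeds and postemergence to plants 2 to 18 cm tall (1- to 4-leaf stage). After 13 to 15 days in a greenhouse, injury was visually rated against untreated controls on a 0 to 100 scale.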

[1] = system: blackgrass (Alopecurus myosuroides); assay: Test B postemergence; conditions: Alopecurus myosuroides, post-emergence, scale 0 to 100 (0 no effect, 100 complete control), read-out: Blackgrass plant response rating
Summary of the method: as §1

[2] = system: velvetleaf (Abutilon theophrasti); assay: Test B pre/postemergence; conditions: Abutilon theophrasti; for pest or weed control at 62 g/ha: 62 g ai/ha; for pest or weed control at 125 g/ha: 125 g ai/ha
Summary of the method: as §1

[3] = system: cocklebur (Xanthium strumarium); assay: Test B pre/postemergence; conditions: Xanthium strumarium; for pest or weed control at 125 g/ha: 125 g ai/ha, scale 0 to 100 (0 no effect, 100 complete control)
Summary of the method: as §1

[4] = system: crabgrass (Digitaria sanguinalis); assay: Test B pre/postemergence; conditions: Digitaria sanguinalis; for pest or weed control at 62 g/ha: 62 g ai/ha; for pest or weed control at 125 g/ha: 125 g ai/ha
Summary of the method: as §1

[5] = system: giant foxtail (Setaria faberii); assay: Test B pre/postemergence; conditions: Setaria faberi; for pest or weed control at 125 g/ha: 125 g ai/ha; for pest or weed control at 62 g/ha: 62 g ai/ha
Summary of the method: as §1

[6] = system: morningglory (Ipomoea coccinea); assay: Test B pre/postemergence; conditions: Ipomoea; for pest or weed control at 62 g/ha: 62 g ai/ha; for pest or weed control at 125 g/ha: 125 g ai/ha
Summary of the method: as §1

[7] = system: wheat (Triticum aestivum); assay: Test B pre/postemergence; conditions: Triticum aestivum, scale 0 to 100 (0 no effect, 100 complete control); for plant injury at 62 g/ha: 62 g ai/ha; for plant injury at 125 g/ha: 125 g ai/ha
Summary of the method: as §1

[8] = system: barnyardgrass (Echinochloa crus-galli); assay: Test B pre/postemergence; conditions: Echinochloa crus-galli, scale 0 to 100 (0 no effect, 100 complete control); for pest or weed control at 62 g/ha: 62 g ai/ha; for pest or weed control at 125 g/ha: 125 g ai/ha
Summary of the method: as §1

[9] = system: Surinam grass (Brachiaria decumbens); assay: Test B pre/postemergence; conditions: Urochloa decumbens; for pest or weed control at 125 g/ha: 125 g ai/ha; for pest or weed control at 62 g/ha: 62 g ai/ha
Summary of the method: as §1

[10] = system: lambsquarters (Chenopodium album); assay: Test B pre/postemergence; conditions: Chenopodium album; for pest or weed control at 62 g/ha: 62 g ai/ha; for pest or weed control at 125 g/ha: 125 g ai/ha
Summary of the method: as §1

corn (Zea mays) = assay: Test B pre/postemergence; conditions: Zea mays
Summary of the method: as §1

[11] = system: pigweed (Amaranthus retroflexus); assay: Test B pre/postemergence; conditions: Amaranthus retroflexus; for pest or weed control at 62 g/ha: 62 g ai/ha; for pest or weed control at 125 g/ha: 125 g ai/ha
Summary of the method: as §1

rice (Oryza sativa) = assay: Test B flooded paddy test; conditions: Oryza sativa, Flood, scale 0 to 100, read-out: Plant response rating, Rice
Summary of the method: (§2)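 Plants were grown to the 2-leaf stage before treatment, then kept in a greenhouse for 13 to 15 days. Injury was rated visually against untreated controls on a 0 to 100 scale, where 0 is no effect and 100 is complete control.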

[12] = system: barnyardgrass (Echinochloa crus-galli); assay: Test B flooded paddy test; conditions: Echinochloa crus-galli, Flood, scale 0 to 100, read-out: Plant response rating, Barnyardgrass
Summary of the method: as §2

[13] = system: duck salad (Heteranthera limosa); assay: Test B flooded paddy test; conditions: Heteranthera limosa, Flood, scale 0 to 100, read-out: Plant response rating, Ducksalad
Summary of the method: as §2

[14] = system: umbrella sedge (Cyperus difformis); assay: Test B flooded paddy test; conditions: Cyperus difformis, Flood, scale 0 to 100, read-out: Plant response rating, Sedge, Umbrella
Summary of the method: as §2

[15] = post-emergence, Postemergence, scale 0 to 100 (0 no effect, 100 complete control), read-out: Velvetleaf plant response rating
[16] = post-emergence, Postemergence, scale 0 to 100 (0 no effect, 100 complete control), read-out: Crabgrass plant response rating
[17] = post-emergence, Postemergence, scale 0 to 100 (0 no effect, 100 complete control), read-out: Foxtail, Giant plant response rating
[18] = post-emergence, Postemergence, scale 0 to 100 (0 no effect, 100 complete control), read-out: Morningglory plant response rating
[19] = post-emergence, Postemergence, read-out: Wheat plant response rating
[20] = pre-emergence, Preemergence, read-out: Plant response rating, Wheat
[21] = post-emergence, Postemergence, read-out: Barnyardgrass plant response rating
[22] = pre-emergence, Preemergence, read-out: Plant response rating, Barnyardgrass
[23] = post-emergence, Postemergence, scale 0 to 100 (0 no effect, 100 complete control), read-out: Surinam Grass plant response rating
[24] = post-emergence, Postemergence, scale 0 to 100 (0 no effect, 100 complete control), read-out: Lambsquarters plant response rating
[25] = post-emergence, Postemergence, scale 0 to 100 (0 no effect, 100 complete control), read-out: Pigweed plant response rating

## CNc1nc(C2CC2)nc(C(=O)OC)c1Cl [Compound 79]
Wild oat (Avena fatua); 62 g ai/ha
  pest or weed control at 62 g/ha: 30%
Wild oat (Avena fatua); 125 g ai/ha
  pest or weed control at 125 g/ha: 40%
[1]; 62 g ai/ha
  pest or weed control at 62 g/ha: 20%
[1]; 125 g ai/ha
  pest or weed control at 125 g/ha: 50%
[2]; [15]
  pest or weed control at 62 g/ha: 50%
  pest or weed control at 125 g/ha: 80%
[2]; pre-emergence, Preemergence, scale 0 to 100, 0 no effect, 100 complete control, read-out: Plant response rating, Velvetleaf
  pest or weed control at 62 g/ha: 50%
[2]; pre-emergence, Preemergence, scale 0 to 100 (0 no effect, 100 complete control), read-out: Plant response rating, Velvetleaf
  pest or weed control at 125 g/ha: 80%
[3]; post-emergence, Postemergence, read-out: Cocklebur plant response rating
  pest or weed control at 125 g/ha: 60%
[3]; pre-emergence, Preemergence, 62 g ai/ha, scale 0 to 100, 0 no effect, 100 complete control, read-out: Plant response rating, Cocklebur
  pest or weed control at 62 g/ha: 50%
[3]; pre-emergence, Preemergence, read-out: Plant response rating, Cocklebur
  pest or weed control at 125 g/ha: 80%
[4]; [16]
  pest or weed control at 62 g/ha: 30%
  pest or weed control at 125 g/ha: 60%
[4]; pre-emergence, Preemergence, scale 0 to 100, 0 no effect, 100 complete control, read-out: Plant response rating, Crabgrass
  pest or weed control at 62 g/ha: 0%
[4]; pre-emergence, Preemergence, scale 0 to 100 (0 no effect, 100 complete control), read-out: Plant response rating, Crabgrass
  pest or weed control at 125 g/ha: 70%
[5]; [17]
  pest or weed control at 125 g/ha: 70%
  pest or weed control at 62 g/ha: 40%
[5]; pre-emergence, Preemergence, scale 0 to 100 (0 no effect, 100 complete control), read-out: Plant response rating, Foxtail, Giant
  pest or weed control at 125 g/ha: 20%
[5]; pre-emergence, Preemergence, scale 0 to 100, 0 no effect, 100 complete control, read-out: Plant response rating, Foxtail, Giant
  pest or weed control at 62 g/ha: 0%
[6]; [18]
  pest or weed control at 62 g/ha: 90%
  pest or weed control at 125 g/ha: 100%
[6]; pre-emergence, Preemergence, scale 0 to 100, 0 no effect, 100 complete control, read-out: Plant response rating, Morningglory
  pest or weed control at 62 g/ha: 70%
[6]; pre-emergence, Preemergence, scale 0 to 100 (0 no effect, 100 complete control), read-out: Plant response rating, Morningglory
  pest or weed control at 125 g/ha: 90%
[7]; [19]
  plant injury at 62 g/ha: 0%
  plant injury at 125 g/ha: 40%
[7]; [20]
  plant injury at 62 g/ha: 0%
  plant injury at 125 g/ha: 60%
[8]; [21]
  pest or weed control at 62 g/ha: 50%
  pest or weed control at 125 g/ha: 80%
[8]; [22]
  pest or weed control at 62 g/ha: 0%
  pest or weed control at 125 g/ha: 70%
[9]; [23]
  pest or weed control at 125 g/ha: 60%
  pest or weed control at 62 g/ha: 20%
[9]; pre-emergence, Preemergence, scale 0 to 100 (0 no effect, 100 complete control), read-out: Plant response rating, Surinam Grass
  pest or weed control at 125 g/ha: 0%
[9]; pre-emergence, Preemergence, scale 0 to 100, 0 no effect, 100 complete control, read-out: Plant response rating, Surinam Grass
  pest or weed control at 62 g/ha: 0%
[10]; [24]
  pest or weed control at 62 g/ha: 90%
  pest or weed control at 125 g/ha: 100%
[10]; pre-emergence, Preemergence, scale 0 to 100, 0 no effect, 100 complete control, read-out: Plant response rating, Lambsquarters
  pest or weed control at 62 g/ha: 90%
[10]; pre-emergence, Preemergence, scale 0 to 100 (0 no effect, 100 complete control), read-out: Plant response rating, Lambsquarters
  pest or weed control at 125 g/ha: 90%
Corn (Zea mays); post-emergence, Postemergence, 62 g ai/ha, scale 0 to 100 (0 no effect, 100 complete control), read-out: Corn plant response rating
  plant injury at 62 g/ha: 20%
Corn (Zea mays); post-emergence, Postemergence, 125 g ai/ha, scale 0 to 100 (0 no effect, 100 complete control), read-out: Corn plant response rating
  plant injury at 125 g/ha: 60%
Corn (Zea mays); pre-emergence, Preemergence, 62 g ai/ha, scale 0 to 100, 0 no effect, 100 complete control
  Corn plant response rating (crop injury, 0 = no effect, 100 = complete kill) at 62 g/ha: 30%
Corn (Zea mays); pre-emergence, Preemergence, 125 g ai/ha, scale 0 to 100 (0 no effect, 100 complete control)
  Corn plant response rating (crop injury, 0 = no effect, 100 = complete kill) at 125 g/ha: 60%
[11]; [25]
  pest or weed control at 62 g/ha: 80%
  pest or weed control at 125 g/ha: 100%
[11]; pre-emergence, Preemergence, scale 0 to 100, 0 no effect, 100 complete control, read-out: Plant response rating, Pigweed
  pest or weed control at 62 g/ha: 80%
[11]; pre-emergence, Preemergence, scale 0 to 100 (0 no effect, 100 complete control), read-out: Plant response rating, Pigweed
  pest or weed control at 125 g/ha: 100%
Rice (Oryza sativa); 125 g ai/ha
  plant injury at 125 g/ha: 0%
Rice (Oryza sativa); 500 g ai/ha
  plant injury at 500 g/ha: 20%
[12]; 125 g ai/ha
  pest or weed control at 125 g/ha: 0%
[12]; 500 g ai/ha
  pest or weed control at 500 g/ha: 0%
[13]; 125 g ai/ha
  pest or weed control at 125 g/ha: 10%
[13]; 500 g ai/ha
  pest or weed control at 500 g/ha: 70%
[14]; 125 g ai/ha
  pest or weed control at 125 g/ha: 0%
[14]; 500 g ai/ha
  pest or weed control at 500 g/ha: 0%
